Test results from patent US5137897A, “2-substituted 4-(3-alkyl-5-tert.-butyl-4-hydroxyphenyl) thiazoles, processes for their preparation, pharmaceuticals containing them and their use” (Hoechst Aktiengesllschaft, priority 1989, dated 1992).
Like-named read-outs stand apart in the source and are kept apart here.

Columns and labels:
[1] = tested on: Adjuvant arthritis (paw volume increase) in rats; experiment: Adjuvant arthritis (method of Pearson), antiinflammatory action on the 5th day; assay type: in vivo, rat (male, Wistar-Lewis strain); conditions: Rattus norvegicus, 120 h; for ED50: adjuvant arthritis, oral, determined graphically from dose-response curve; for inhibition in vivo at 50 mg/kg: po, 50 mg/kg p.o. once daily, 1st to 5th day, vs untreated control, read-out: Adjuvant arthritis (% inhibition at 50 mg/kg orally)
Experimental: The testing of the compounds of the formula I according to the invention for antiinflammatory action, influence on immunopathological processes, oxygen free radicaldeactivating properties and influence on arachidonic acid metabolism was carried out in the animal models and bioassays described in the following.
1. Adjuvant arthritis for influencing the antiinflammatory action (Table 2)
(§1) The investigations were carried out by the method of Pearson (Arthrit. Rheum. 1959, 2, 44). Male rats of a Wistar-Lewis strain having a body weight between 130 and 200 g were used as experimental animals. The compounds to be tested were administered orally (p. o.) once daily from the 1st to the 5th experimental day in doses of 50 mg per kg of body weight. The animals of one control group received only the vehicle. Each preparation group and the control group comprised 8 animals. The percentage reduction of the paw volume increase compared to that of the untreated control group was used as the criterion of action. The ED50 values were determined graphically from the dose-response curve.
(§2) 4-(3,5-Di-tert.-butyl-4-hydroxyphenyl)-2-methylthiazole i.e. the compound of the formula [drawing 26] according to US-A-4,535,165 mentioned at the beginning, was additionally included in this and the investigation below as a comparison preparation.

[2] = tested on: Adjuvant arthritis (Perper modification; paw volume) in rats; experiment: Adjuvant arthritis (Perper modification), paw volume on the 21st day; assay type: in vivo, rat (male, Wistar-Lewis strain); conditions: Rattus norvegicus, po, 504 h, 1st to 12th day; for inhibition in vivo at 2.5 mg/kg: 2.5 mg/kg/day; for inhibition in vivo at 5 mg/kg: 5 mg/kg/day
[3] = Free radical scavenger properties (reaction with DPPH); conditions: reaction with DPPH at 20° C.; determined graphically
Experimental: a) Free radical scavenger properties The testing in this test, which allows conclusions on the antioxidative potential of a substance, was carried out according to Smith et al., Biochem, Pharmacol. 1987. 36, 1456. In this test, the reaction of the compounds according to the invention with the stable free radical 1,1-diphenyl-2-picrylhydrazyl (DPPH) is monitored optically at 20° C. The rate constant K and reaction orders n in Table 5 were determined graphically in the customary manner.

[4] = tested on: LTB4 formation in mast cell cultures; experiment: Influence on formation of LTB4 in mast cell cultures (rat); assay type: cell-based; conditions: read-out: LTB4, Residual activity (%)
Experimental: (§3) Moreover, the substances according to the invention were also characterized in cellular leukocyte systems in vitro as inhibitors of arachidonic acid metabolites. To detect the lipoxygenase metabolites, human neutrophils stimlated by calcium ionophore A 23 187 (70 mcmol/1) were incubated with ^14 C-arachidonic acid (81 mcmol/1) and the principal metabolites formed after 15 minutes at 37° C., such as 5-hydroxyeicosatetraenoic acid (5-HETE) and the more strongly proinflammatory leukotriene B4 (LTB4) were determined quantitatively (Tab. 6) with the aid of a radio monitor after separation by HPLC. The influence on the proinflammatory arachiconic acid metabolites thromboxane and LTB4 in cultures prepared from rat mast cells was determined in a corresponding manner (Tab. 7).

[5] = tested on: TXB2 formation in mast cell cultures; experiment: Influence on formation of TXB2 in mast cell cultures (rat); assay type: cell-based; conditions: read-out: TXB2, Residual activity (%)
Experimental: as §3

[6] = tested on: LTB4 formation in human neutrophils; experiment: Influence on LTB4 formation in human neutrophils; assay type: cell-based; conditions: Neutrophil
Experimental: as §3

[7] = biological target: T1, cyclooxygenase (Ovis aries, UniProt P05979); experiment: Cyclooxygenase (microsomes) inhibition in vitro; assay type: biochemical, sheep
T1 construct: microsomal cyclooxygenase system (fraction from sheep seminal vesicles, Paesel, Frankfurt, Germany); purchased Paesel, Frankfurt, Germany; host or cells: sheep seminal vesicles (microsomal fraction)
T1 sequence (P05979 25-600): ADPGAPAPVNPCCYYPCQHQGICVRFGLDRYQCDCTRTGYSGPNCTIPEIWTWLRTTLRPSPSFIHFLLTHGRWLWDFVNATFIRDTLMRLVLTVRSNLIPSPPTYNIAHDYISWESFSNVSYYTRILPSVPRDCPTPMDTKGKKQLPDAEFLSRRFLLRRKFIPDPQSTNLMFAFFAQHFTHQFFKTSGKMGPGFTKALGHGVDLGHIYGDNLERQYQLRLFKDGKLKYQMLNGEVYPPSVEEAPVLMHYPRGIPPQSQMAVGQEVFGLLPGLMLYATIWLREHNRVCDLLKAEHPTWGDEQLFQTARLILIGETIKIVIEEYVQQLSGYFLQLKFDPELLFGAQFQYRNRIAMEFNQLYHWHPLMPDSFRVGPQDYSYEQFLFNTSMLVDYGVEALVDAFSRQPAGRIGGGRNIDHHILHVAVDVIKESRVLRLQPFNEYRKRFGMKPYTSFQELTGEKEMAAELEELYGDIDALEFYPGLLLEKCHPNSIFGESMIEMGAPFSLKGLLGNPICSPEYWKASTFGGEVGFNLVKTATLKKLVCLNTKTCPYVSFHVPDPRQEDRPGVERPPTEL
Experimental: (§4) The inhibitory action of the compounds according to the invention is measured on the in vitro arachidonic acid degradation catalyzed by cyclooxycenase and lipoxycenase with the aid of the test systems described in Weithmann and Alpermann, Arzneim.-Forsch. 1985, 35, 947: The cyclooxygenase-catalyzed synthesis of prostaglandins from arachidonic acid is measured in the microsomal cyclooxygenase system (fraction from sheep seminal vesicles, Paesel, Frankfurt, Germany). The coenzyme is adrenaline, whose conversion to adrenochrome is monitored by spectrophotometry at 492 nm. Cis-9-cis-12-linoleic acid is incubated with lipoxygenase (L7127, Sigma, Deisenhofen, Germany) in the lipoxygenase system in vitro and the formation of conjugated double bonds taking place during the oxygenation reaction is monitored optically at 234 nm.
The inhibitor actions, or the inhibitor concentrations necessary for a 50 % inhibition of enzyme activity (IC50 values), have been determined for the following examples according to the invention:
Cyclooxygenase (microsomes)

[8] = tested on: 5-HETE formation in human neutrophils; experiment: Influence on 5-HETE formation in human neutrophils; assay type: cell-based; conditions: Neutrophil
Experimental: as §3

[9] = tested on: Arthus reaction (paw volume increase) in rats; experiment: Reverse passive Arthus reaction; assay type: in vivo, rat (male Sprague-Dawley)
Experimental: b) Reverse passive Arthus reaction
Male Sprague-Dawley rats having a body weight between 100 and 120 g. which had been divided into groups of 8 animals in each case, were used as experimental animals. The animals received a subplantar injection in the left hind paw of 0.5 mg of immunoglobulin in 0.1 ml of a sodium chloride solution 1 hour after oral administration of the test substance. After 4 hours, the Arthus reaction was measured, the percentage change in the paw volume increase compared to that of the control group treated only with vehicle being used as a measuring parameter for the action.

[10] = biological target: T2, lipoxygenase (Glycine max, UniProt P08170); experiment: Lipoxygenase (enzyme) inhibition in vitro; assay type: biochemical
T2 construct: purchased Sigma, Deisenhofen, Germany L7127
T2 sequence (P08170 1-839): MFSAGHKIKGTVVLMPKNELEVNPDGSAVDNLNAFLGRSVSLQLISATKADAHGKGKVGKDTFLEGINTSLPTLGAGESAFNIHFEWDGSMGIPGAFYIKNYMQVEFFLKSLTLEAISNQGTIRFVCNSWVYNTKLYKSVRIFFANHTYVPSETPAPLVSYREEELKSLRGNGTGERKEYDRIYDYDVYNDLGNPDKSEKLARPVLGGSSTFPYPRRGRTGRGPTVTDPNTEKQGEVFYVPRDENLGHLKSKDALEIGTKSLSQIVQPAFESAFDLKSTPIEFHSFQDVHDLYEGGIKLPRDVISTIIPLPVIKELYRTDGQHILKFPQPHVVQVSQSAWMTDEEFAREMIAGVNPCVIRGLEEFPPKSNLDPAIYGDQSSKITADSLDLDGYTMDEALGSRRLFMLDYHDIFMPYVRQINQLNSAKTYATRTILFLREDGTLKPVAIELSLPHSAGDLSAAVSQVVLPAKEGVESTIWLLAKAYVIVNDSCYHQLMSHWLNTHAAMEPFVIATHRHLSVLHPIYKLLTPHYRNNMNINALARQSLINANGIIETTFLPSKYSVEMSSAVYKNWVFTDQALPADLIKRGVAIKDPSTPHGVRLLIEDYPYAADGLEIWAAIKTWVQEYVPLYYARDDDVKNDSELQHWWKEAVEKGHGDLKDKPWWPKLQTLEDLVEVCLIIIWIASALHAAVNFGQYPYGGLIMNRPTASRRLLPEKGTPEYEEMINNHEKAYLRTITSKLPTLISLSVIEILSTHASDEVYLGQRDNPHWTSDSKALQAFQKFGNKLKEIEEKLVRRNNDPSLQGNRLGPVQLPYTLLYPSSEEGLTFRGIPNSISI
Experimental: as §4
The inhibitor actions, or the inhibitor concentrations necessary for a 50 % inhibition of enzyme activity (IC50 values), have been determined for the following examples according to the invention: […]

[11] = tested on: Adjuvant arthritis (Perper modification; paw volume) in rats; experiment: Adjuvant arthritis (Perper modification), paw volume on the 21st day; assay type: in vivo, rat (male, Wistar-Lewis strain); conditions: Rattus norvegicus, po, 504 h, 50 mg/kg/day, 1st to 12th day
Experimental: as §1, §2
a) Adjuvant arthritis (Perper modification)
The animals were only treated from the 1st to the 12th experimental day in the experimental arrangement described in item 1. After a treatment-free interval of 9 days, determination of the paw volume of the left and right hind paw was carried out on the 21st day (compare Table 3).

[12] = read-out: % inhibition on the 21st day, Left paw
[13] = read-out: % inhibition on the 21st day, Right paw

CC(C)(C)c1cc(-c2csc(CCC(=O)O)n2)cc(C(C)(C)C)c1O [Example 3, 3-[4-(3,5-Di-tert.-butyl-4-hydroxyphenyl)thiazol-2-yl]propionic acid]
ED50 [1]: 0.9 mg/kg
inhibition in vivo at 50 mg/kg [1]: 84%
inhibition in vivo at 2.5 mg/kg [2, 12]: 65%
inhibition in vivo at 2.5 mg/kg [2, 13]: 59%
inhibition in vivo at 5 mg/kg [2, 12]: 41%
inhibition in vivo at 5 mg/kg [2, 13]: 74%
reaction order n [3]: < 1
activity at 1 µM ([4]; 1 μM): 94 ± 12%
activity at 10 µM ([4]; 10 μM): 102 ± 9%
activity at 100 µM ([4]; 100 μM): 78 ± 14%
activity at 1 µM ([5]; 1 μM): 113 ± 49%
activity at 10 µM ([5]; 10 μM): 94 ± 17%
activity at 100 µM ([5]; 100 μM): 28 ± 10%

CC(C)(C)c1cc(-c2csc(CCC(=O)NO)n2)cc(C(C)(C)C)c1O [Example 7, 3-[4-(3 .-butyl-4-hydroxyphenyl)thiazol-2-yl]propionylhydroxamic acid]
activity at 0.1 µM ([6]; 0.1 μM, n = 6, read-out: LTB4 formation, Residual activity (%)): 91 ± 13.2%
activity at 1 µM ([6]; 1 μM, n = 6, read-out: LTB4 formation, Residual activity (%)): 74.3 ± 21.5%
activity at 10 µM ([6]; 10 μM, n = 6, read-out: LTB4 formation, Residual activity (%)): 35 ± 17%
activity at 100 µM ([6]; 100 μM, n = 9, read-out: LTB4 formation, Residual activity (%)): 1.7 ± 1.3%
ED50 [1]: 2.4 mg/kg
inhibition in vivo at 50 mg/kg [1]: 83%
inhibition at 100 µM [7]: 75%
reaction order n [3]: 1
activity at 0.1 µM ([8]; 0.1 μM, n = 6, read-out: 5-HETE formation, Residual activity (%)): 89.2 ± 12.1%
activity at 1 µM ([8]; 1 μM, n = 6, read-out: 5-HETE formation, Residual activity (%)): 87 ± 15.6%
activity at 10 µM ([8]; 10 μM, n = 6, read-out: 5-HETE formation, Residual activity (%)): 39 ± 12.8%
activity at 100 µM ([8]; 100 μM, n = 9, read-out: 5-HETE formation, Residual activity (%)): 1.7 ± 0.4%

CCOC(=O)Cc1nc(-c2cc(C(C)(C)C)c(O)c(C(C)(C)C)c2)cs1 [Example 8]
% inhibition (Arthus reaction) ([9]; 60 mg/kg orally): 38%
inhibition at 100 µM [7]: 75%
IC50 ([10]; Lipoxygenase (enzyme)): 50 µM
reaction order n [3]: 1

Cc1sc(CCC(=O)O)nc1-c1cc(C(C)(C)C)c(O)c(C(C)(C)C)c1 [Example 15]
ED50 [1]: 2.6 mg/kg
inhibition in vivo at 50 mg/kg [1]: 67%
inhibition in vivo at 50 mg/kg [11, 12]: 39%
inhibition in vivo at 50 mg/kg [11, 13]: 50%
% inhibition (Arthus reaction) ([9]; 100 mg/kg orally): 47%
inhibition at 100 µM ([10]; at 100 μM): 78%
reaction order n [3]: < 1

CCOC(=O)CCc1nc(-c2cc(C)c(O)c(C(C)(C)C)c2)cs1 [Example 16]
IC50 [7]: 34 µM
reaction order n [3]: < 1
